This note sets out measurements from patent US20160108027A1, “SUBSTITUTED BENZOXAZOLES” (BAYER PHARMA AKTIENGESELLSCHAFT, priority 2013, published 2016).

For assay [1], the target named is T1, thrombin (Homo sapiens, UniProt P00734). Nature of the assay: Measurement of the thrombin inhibition in buffer. It counts as biochemical. As to conditions: human thrombin 0.06 nmol/l in Tris buffer pH 7.4, 22° C., substrate Boc-Asp(OBzl)-Pro-Arg-AMC; in some cases means of individual determinations. How it is done: To determine the thrombin inhibition of the substances listed above, a biochemical test system is constructed in which the conversion of a thrombin substrate is used for determining the enzymatic activity of human thrombin. Here, thrombin cleaves aminomethylcoumarin, which is measured fluorescently, from the peptic substrate. The determinations are carried out in microtitre plates.
Substances to be tested are dissolved in various concentrations in dimethyl sulphoxide and incubated for 15 min with human thrombin (0.06 nmol/l dissolved in 50 mmol/l of Tris buffer [C,C,C-tris(hydroxymethyl)aminomethane], 100 mmol/l of sodium chloride, 0.1% BSA [bovine serum albumin], pH 7.4) at 22° C. The substrate (5 μmol/l Boc-Asp(OBzl)-Pro-Arg-AMC from Bachem) is then added. After 30 min of incubation, the sample is excited at a wavelength of 360 nm and the emission is measured at 460 nm. The measured emissions of the test mixtures with test substance are compared to the control mixtures without test substance (only dimethyl sulphoxide instead of test substance in dimethyl sulphoxide) and IC50 values are calculated from the concentration/activity relationships. Representative activity data from this test are given in Table 1 below (in some cases as means of individual determinations): […]

The target in assay [2] is T1, thrombin. Nature of the assay: Determination of the thrombin-inhibitory activity in plasma samples (ecarin-activated). The class given is biochemical. As to conditions: citrate plasma, ecarin activation, fluorogenic thrombin substrate; in some cases means of individual determinations. The procedure: To determine the inhibition of thrombin in plasma samples, plasma […] is activated by ecarin. Thrombin activity and/or its inhibition by potential inhibitors is/are then measured fluorenscently by addition of a substrate.
The substances to be tested are dissolved in various concentrations in dimethyl sulphoxide and diluted with water. In white 96-well flat-bottomed plates, 20 μl of substance dilution are mixed with 20 μl of ecarin solution (ecarin reagent, from Sigma E-0504, final concentration 20 mU per reaction) in Ca buffer (200 mM Hepes+560 mM sodium chloride+10 mM calcium chloride+0.4% PEG) or with 20 μl of Ca buffer (as unstimulated control). Furthermore, 20 μl of fluorogenic thrombin substrate (from Bachem 1-1120, final concentration 50 μmol/1) and 20 μl of citrate plasma (from Octapharma) are added, and the mixture is homogenized well. The plate is measured in a SpectraFluorplus Reader using a 360 nm excitation filter and a 465 nm emission filter every minute over 20 minutes. […] Representative activity data from this test are given in Table 2 below (in some cases as means of individual determinations): […]

As usually defined, the IC50 is the concentration needed to halve the response being measured. `COc1cc(C(=O)N2CCCC2(C)C(=O)N2CC(F)(F)C2)cc2nc(NCc3cc(Cl)ccn3)oc12` (single isomer, unassigned) [Example 16, (2-{[(4-Chloropyridin-2-yl)methyl]amino}-7-methoxy-1,3-benzoxazol-5-yl){2-[(3,3-difluoroazetidin-1-yl)carbonyl]-2-methylpyrrolidin-1-yl}methanone]: the IC50 at thrombin [1] was 0.03 µM; on thrombin [2], 0.036 µM.
The matching figures for `COc1cc(C(=O)N2CCCC2(C)C(=O)N2CC(F)C2)cc2nc(NCc3cc(Cl)ccn3)oc12` (single isomer, unassigned) [Example 17, (2-{[(4-Chloropyridin-2-yl)methyl]amino}-7-methoxy-1,3-benzoxazol-5-yl){2-[(3-fluoroazetidin-1-yl)carbonyl]-2-methylpyrrolidin-1-yl}methanone]: 0.033 µM and 0.052 µM.
The matching figures for `COc1cc(C(=O)N2CCCC2(C)C(=O)N2CCOCC2)cc2nc(NCc3cc(Cl)ccn3)oc12` (single isomer, unassigned) [Example 18, (2-{[(4-Chloropyridin-2-yl)methyl]amino}-7-methoxy-1,3-benzoxazol-5-yl) [2-methyl-2-(morpholin-4-ylcarbonyl)pyrrolidin-1-yl]methanone]: 0.017 µM and 0.027 µM.
The matching figures for `COc1cc(C(=O)N2CC(C)OCC2(C)CO)cc2nc(NCc3cc(Cl)ccn3)oc12` (single isomer, unassigned) [Example 19, (2-{[(4-Chloropyridin-2-yl)methyl]amino}-7-methoxy-1,3-benzoxazol-5-yl) [5-(hydroxymethyl)-2,5-dimethylmorpholin-4-yl]methanone]: 0.034 µM and 0.053 µM.
Turning to `COc1cc(C(=O)N2CC(C)OCC2(C)CO)cc2nc(NCc3cc(Cl)ccn3)oc12` (single isomer, unassigned) [Example 20, (2-{[(4-Chloropyridin-2-yl)methyl]amino}-7-methoxy-1,3-benzoxazol-5-yl) [5-(hydroxymethyl)-2,5-dimethylmorpholin-4-yl]methanone], the IC50 turned out to be 0.036 µM at thrombin [1] and 0.066 µM against thrombin [2].
The matching figures for `COc1cc(C(=O)N2CC(C)(CC(C)O)OCC2CF)cc2nc(NCc3cc(Cl)ccn3)oc12` (single isomer, unassigned) [Example 23, (2-{[(4-Chloropyridin-2-yl)methyl]amino}-7-methoxy-1,3-benzoxazol-5-yl) [5-(fluoromethyl)-2-(2-hydroxypropyl)-2-methylmorpholin-4-yl]methanone]: 0.0008 µM and 0.0065 µM.
As for `COc1cc(C(=O)N2CC(C)(CCO)OC[C@H]2C)cc2nc(NCc3cc(Cl)ccn3)oc12` (single isomer, unassigned) [Example 24], the concentration for half-maximal inhibition (IC50) at thrombin [1] came out at 0.0025 µM; against thrombin [2] it was 0.012 µM.
For `COc1cc(C(=O)N2CC(C)(CC(C)O)OC[C@H]2C)cc2nc(NCc3cc(Cl)ccn3)oc12` (single isomer, unassigned) [Example 25], in that order: 0.001 µM and 0.0068 µM.
The matching figures for `COc1cc(C(=O)N2CC(C)(CC(C)O)OC[C@H]2C)cc2nc(NC(C)c3cc(Cl)ccn3)oc12` (single isomer, unassigned) [Example 27]: 0.0021 µM and 0.0076 µM.
The matching figures for `CC[C@@H]1COC(C)(CCO)CN1C(=O)c1cc(OC)c2oc(NCc3cc(Cl)ccn3)nc2c1` (single isomer, unassigned) [Example 29]: 0.0019 µM and 0.0088 µM.
With `COCC1COC(C)(CCO)CN1C(=O)c1cc(OC)c2oc(NCc3cc(Cl)ccn3)nc2c1` (single isomer, unassigned) [Example 31], the IC50 on thrombin [1] was determined as 0.011 µM; against thrombin [2], 0.034 µM.
